Biological target: human GPR120 (Homo sapiens (Human), UniProt Q5NUL3)
Assay: GPR120 pERK AlphaScreen SureFire Assay (human GPR120 pERK assay)
Format: cell-based
Settings: CHO cells stably transfected with short form of human GPR120
From the text: GPR120 activity was monitored by measuring phosphorylation of ERK (pERK), since G protein receptors are known to activate the ERK signaling cascade either directly and/or through recruitment of arrestin that serves as a scaffold for downstream signaling events.
GPR120 pERK AlphaScreen SureFire Assay
The human and mouse GPR120-mediated intracellular phosphorylated ERK assays were established using CHOA12 cells stably transfected with the short form of human or mouse GPR120 receptor. Cells were cultured in growth medium consisting of F-12 media (Invitrogen Cat. #11765) with 5% Charcoal/Dextran FBS (Invitrogen Cat. #12676-029), 500 μg/mL GENETICIN® (Life Technologies Cat. #10131-027) and 250 μg/mL Zeocin (Invitrogen Cat. #R250-01). Cells were cryo-preserved at a concentration of 2×10^7 cells/mL, in 90% Charcoal/Dextran FBS and 10% DMSO, and frozen in liquid nitrogen at a low passage number.
For the pERK assay, 2×10^7 cells/mL cryopreserved human and mouse cells were thawed rapidly in a 37° C. water bath and added to a T-225 flask containing 50 mL growth medium. The flasks were placed in a tissue culture incubator overnight (37° C., 5% CO2). The next day, cells were harvested with trypsin (Gibco Cat. #25300-054), resuspended in serum-containing growth medium and counted using a Cellometer and volume adjusted to a concentration of 0.6×10^6 cells/mL. Cells were plated into 384-well clear bottom tissue culture plates (BD Cat. #353962) at 50 μL/well, for a density of 30,000 cells/well using a MULTIDROP® and incubated for 16-18 hours (overnight) at 37° C. with 5% CO2. The next day, cells were serum starved in 30 μL of F-12 media without any serum or antibiotics for 2 hours at 37° C.
Test compounds were 3-fold, 11-point serially diluted in DMSO in a REMP assay plate (Matrix Cat. #4307) by Tecan and 5 μL was transferred into an ECHO source plate (Labcyte Cat. #LC-0200). Cells were then stimulated with 50 nL of compound dilutions using ECHO liquid handler for 7 min at 37° C. Compounds ranged from final assay concentrations of 33.33 μM to 0.56 nM.
The media was then dumped and cells lysed with 20 μL of 1× Lysis buffer from the AlphaScreen SureFire Phospho-ERK 1/2 Kit (Perkin Elmer Cat. #6760617M). The lysis buffer was diluted 5-fold with water before use. The plate was agitated on a shaker for 10 min after which 2 μL was transferred into a 384-well white proxiplate (Perkin Elmer Cat. #6008289). The SureFire assay reagent mix was prepared by mixing 60 parts Reaction Buffer, 10 parts Activation Buffer, 1 part Donor Beads, 1 part Acceptor Beads (Perkin Elmer Cat. #TGRES10K). 3.5 μL/well of this reagent mix was manually added to the proxiplate with a multichannel pipettor. Plates were spun down at 1000 rpm for 2 min, followed by light-protected incubation at room temperature for 2 hours. The plates were read on the Alpha-technology compatible Envision multilabel plate reader using AlphaScreen protocol according to manufacturer's specifications. The agonist effect of compounds was expressed as 100×(average sample-average blank)/(average total-average blank) where sample is the luminescence activity in the presence of test compound, blank is equal to the luminescence activity in the presence of DMSO control and the total is signal induced by 50 μM linolenic acid as reference compound. Activation data for the test compound over a range of concentrations was plotted as percentage activation of the test compound (100%=maximum response). After correcting for background, EC50 values were determined. The EC50 is defined as the concentration of test compound which produces 50% of the maximal response and was quantified using the 4 parameter logistic equation to fit the data.
The human and mouse GPR120-mediated intracellular phosphorylated ERK assays were also established using CHO-K1 cells stably transfected with the short form of human or mouse GPR120 receptor. […]

human GPR120, sequence (Q5NUL3 whole entry): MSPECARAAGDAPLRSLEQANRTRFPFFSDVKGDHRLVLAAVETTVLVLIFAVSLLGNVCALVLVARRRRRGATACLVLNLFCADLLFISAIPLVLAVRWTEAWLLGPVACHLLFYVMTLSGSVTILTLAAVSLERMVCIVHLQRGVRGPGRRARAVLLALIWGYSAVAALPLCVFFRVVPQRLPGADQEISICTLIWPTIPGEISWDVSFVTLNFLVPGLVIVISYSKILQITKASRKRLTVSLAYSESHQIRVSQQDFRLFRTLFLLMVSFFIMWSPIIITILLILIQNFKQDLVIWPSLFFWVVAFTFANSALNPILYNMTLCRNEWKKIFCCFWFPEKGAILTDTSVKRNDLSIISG

| SMILES | EC50 | EC50 (μM) |
| --- | --- | --- |
| CC(C)Oc1cc(F)c(F)c(-c2ccc(OC[C@@H]3C[C@H]3C(=O)O)c(F)c2)c1 (racemic) [Example 65, Trans-2-(((2′,3,3′-trifluoro-5′-isopropoxy-[1,1′-biphenyl]-4-yl)oxy)methyl)cyclopropanecarboxylic acid] | 330 nM | – |
| CC(C)Oc1ccc(F)c(-c2ccc(CC[C@@H]3C[C@H]3C(=O)O)cc2)c1 (racemic) [Example 30, Trans-2-(2-(2′-fluoro-5′-isopropoxy-[1,1′-biphenyl]-4-yl)ethyl)cyclopropanecarboxylic acid] | 320 nM | – |
| COc1cc(OC(C)C)cc(-c2ccc(OC[C@@H]3C[C@H]3C(=O)O)cc2)c1 (racemic) [Example 117, Trans-2-(((3′-isopropoxy-5′-methoxy-[1,1′-biphenyl]-4-yl)oxy)methyl) cyclopropanecarboxylic acid] | 1110 nM | – |
| CC(C)Oc1ccc(F)c(-c2ccc(CC[C@]3(F)C[C@@H]3C(=O)O)cc2)c1 (racemic) [Example 40, Trans-2-fluoro-2-(2-(2′-fluoro-5′-isopropoxy-[1,1′-biphenyl]-4-yl)ethyl) cyclopropanecarboxylic acid] | 5090 nM | – |
| COc1ncc(Cl)cc1-c1ccc(CC[C@@H]2C[C@H]2C(=O)O)cc1 (racemic) [Example 78, Trans-2-(4-(5-chloro-2-methoxypyridin-3-yl)phenethyl) cyclopropanecarboxylic acid] | 6090 nM | – |
| CC(C)COc1cc(F)cc(-c2ccc(OC[C@@H]3C[C@H]3C(=O)O)cc2)c1 (racemic) [Example 72, Trans-2-(((3′-fluoro-5′-isobutoxy-[1,1′-biphenyl]-4-yl)oxy)methyl) cyclopropanecarboxylic acid] | 1550 nM | – |
| CC(C)Oc1cc(F)cc(-c2ccc(OC[C@@H]3C[C@H]3C(=O)O)cc2)c1 (racemic) [Example 55, Trans-2-(((3′-fluoro-5′-isopropoxy-[1,1′-biphenyl]-4-yl)oxy)methyl) cyclopropanecarboxylic acid] | 1060 nM | – |
| O=C(O)[C@@H]1C[C@H]1CCc1ccc(-c2cccc(Oc3ccccc3)c2)cc1 (racemic) [Example 75, Trans-2-(2-(3′-phenoxy-[1,1′-biphenyl]-4-yl)ethyl) cyclopropanecarboxylic acid] | 180 nM | – |
| CCSc1cccc(-c2ccc(CC[C@@H]3C[C@H]3C(=O)O)cc2)c1 (racemic) [Example 38, Trans-2-(2-(3′-(ethylthio)-[1,1′-biphenyl]-4-yl)ethyl)cyclopropanecarboxylic acid] | 3240 nM | – |
| O=C(O)[C@@H]1C[C@H]1COc1ccc(-c2cc(Cl)cc(OC(F)(F)F)c2)cc1 (racemic) [Example 48, Trans-2-(((3′-chloro-5′-(trifluoromethoxy)-[1,1′-biphenyl]-4-yl)oxy)methyl)cyclopropanecarboxylic acid] | 760 nM | – |
| CC(C)Oc1cc(F)c(F)c(-c2ccc(OC[C@@H]3C[C@H]3C(=O)O)cc2F)c1 (racemic) [Example 61, Trans-2-(((2,2′,3′-trifluoro-5′-isopropoxy-[1,1′-biphenyl]-4-yl)oxy)methyl)cyclopropanecarboxylic acid] | 2780 nM | – |

Next, values leading:

| EC50 | EC50 (μM) | SMILES |
| --- | --- | --- |
| 300 nM | – | O=C(O)[C@@H]1C[C@H]1COc1ccc(-c2cc(Oc3ccc(Cl)cc3)ccc2F)cc1 (racemic) [Example 92, Trans-2-(((5′-(4-Chlorophenoxy)-2′-fluoro-[1,1′-biphenyl]-4-yl)oxy)methyl) cyclopropanecarboxylic acid] |
| 10800 nM | – | CC(C)Sc1ncc(C(F)(F)F)cc1-c1ccc(OC[C@@H]2C[C@H]2C(=O)O)cc1 (racemic) [Example 69, Trans-2-((4-(2-(isopropylthio)-5-(trifluoromethyl)pyridin-3-yl)phenoxy)methyl)cyclopropanecarboxylic acid] |
| 640 nM | – | CC(C)Oc1ccc(F)c(-c2ccc(CC[C@@H]3C[C@H]3C(=O)O)cc2)c1 (single isomer, unassigned) [Example 31] |
| 3260 nM | – | COc1ccc(F)c(-c2ccc(CC[C@@H]3C[C@H]3C(=O)O)cc2)c1 (relative stereo) [Example 80, Trans-2-(2-(2′-fluoro-5′-methoxy-[1,1′-biphenyl]-4-yl)ethyl) cyclopropanecarboxylic acid] |
| 3050 nM | – | O=C(O)[C@@H]1C[C@H]1COc1ccc(-c2cnn(Cc3ccccc3)c2)cc1 (racemic) [Example 83, Trans-2-((4-(1-benzyl-1H-pyrazol-4-yl)phenoxy)methyl)cyclopropanecarboxylic acid] |
| 260 nM | – | Cc1ccc(Oc2cc(F)c(F)c(-c3ccc(OCC4CC4C(=O)O)c(F)c3)c2)cc1F (single isomer, unassigned) [Example 109] |
| 2440 nM | – | O=C(O)[C@@H]1C[C@H]1COc1ccc(-c2cc(Cl)cc(C(F)(F)F)c2)cc1 (racemic) [Example 124, Trans-2-(((3′-chloro-5′-(trifluoromethyl)-[1,1′-biphenyl]-4-yl)oxy)methyl)cyclopropanecarboxylic acid] |
| 2340 nM | – | COc1cc(Cl)cc(-c2ccc(CC[C@@H]3C[C@H]3C(=O)O)cc2)c1 (racemic) [Example 77, Trans-2-(2-(3′-chloro-5′-methoxy-[1,1′-biphenyl]-4-yl)ethyl) cyclopropanecarboxylic acid] |
| 170 nM | – | Cc1ccc(Oc2ccc(F)c(-c3ccc(OC[C@@H]4C[C@H]4C(=O)O)c(F)c3)c2)cn1 (racemic) [Example 103, Trans-2-(((2′,3-difluoro-5′-((6-methylpyridin-3-yl)oxy)-[1,1′-biphenyl]-4-yl)oxy)methyl)cyclopropanecarboxylic acid] |
| 210 nM | – | CC(C)Oc1ccc(Cl)c(-c2ccc(OC[C@@H]3C[C@H]3C(=O)O)c(F)c2)c1 (racemic) [Example 18, Trans-2-(((2′-chloro-3-fluoro-5′-isopropoxy-[1,1′-biphenyl]-4yl)oxy)methyl) cyclopropanecarboxylic acid] |
| – | Not active | C=C(C)COc1cc(F)cc(-c2ccc(OC[C@@H]3C[C@H]3C(=O)O)cc2)c1 (racemic) [Example 19, Trans-2-(((3′-fluoro-5′-((2-methylallyl)oxy)-[1,1′-biphenyl]-4-yl)oxy)methyl) cyclopropanecarboxylic acid] |
| 920 nM | – | CC(C)Oc1cccc(-c2ccc(CC[C@@H]3C[C@H]3C(=O)O)cc2)c1 (racemic) [Example 131, Trans-2-(2-(3′-isopropoxy-[1,1′-biphenyl]-4-yl)ethyl) cyclopropanecarboxylic acid] |
| 310 nM | – | Cc1cc(-c2cc(OC(C)C)ccc2F)ccc1OC[C@@H]1C[C@H]1C(=O)O (racemic) [Example 46, Trans-2-(((2′-fluoro-5′-isopropoxy-3-methyl-[1,1′-biphenyl]-4-yl)oxy)methyl)cyclopropanecarboxylic acid] |
| 3810 nM | – | Cc1nn(Cc2ccc(Cl)cc2)cc1-c1ccc(OC[C@@H]2C[C@H]2C(=O)O)cc1 (racemic) [Example 85, Trans-2-((4-(1-(4-chlorobenzyl)-3-methyl-1H-pyrazol-4-yl)phenoxy)methyl) cyclopropanecarboxylic acid] |
| 60 nM | – | CC(C)Oc1ccc(F)c(-c2ccc(C[C@H]3C[C@@H]3CC(=O)O)cc2)c1 (racemic) [Example 33, Trans-2-(2-((2′-fluoro-5′-isopropoxy-[1,1′-biphenyl]-4-yl)methyl)cyclopropyl)acetic acid] |
| 800 nM | – | COC(=O)c1cccc(-c2ccc(CC[C@@H]3C[C@H]3C(=O)O)cc2)c1 (racemic) [Example 130, Trans-2-(2-(3′-(methoxycarbonyl)-[1,1′-biphenyl]-4-yl)ethyl) cyclopropanecarboxylic acid] |

— US9938222B2 (BRISTOL-MYERS SQUIBB COMPANY, priority 2014, dated 2018)
